Test system: SARS-CoV-2
Experiment: microbe, parasite or virus in culture
Type: cell-based
[1] = Severe acute respiratory syndrome coronavirus 2, VeroE6/TMPRSS2
[2] = Severe acute respiratory syndrome coronavirus 2, VeroE6/TMPRSS2, Beta strain (TY8-612)
[3] = Severe acute respiratory syndrome coronavirus 2, VeroE6/TMPRSS2, Gamma strain (TY7-501)
[4] = Severe acute respiratory syndrome coronavirus 2, VeroE6/TMPRSS2, Gamma strain (TY7-503)

| SMILES | EC50 [1] | EC50 [2] | EC50 (Severe acute respiratory syndrome coronavirus 2, VeroE6/TMPRSS2, Delta strain (TY11-927-P1)) | EC50 [3] | EC50 [4] | EC50 (Severe acute respiratory syndrome coronavirus 2, VeroE6/TMPRSS2, Lambda strain (TY33-456)) | EC50 (Severe acute respiratory syndrome coronavirus 2, VeroE6/TMPRSS2, Mu strain (TY26-717)) | EC50 (Severe acute respiratory syndrome coronavirus 2, VeroE6/TMPRSS2, Theta strain (TY28-444)) | EC50 (Severe acute respiratory syndrome coronavirus 2, VeroE6/TMPRSS2, Alpha strain (QHN001)) | EC50 (Severe acute respiratory syndrome coronavirus 2, VeroE6/TMPRSS2, Alpha strain (QHN002)) | EC50 (Severe acute respiratory syndrome coronavirus 2, VeroE6/TMPRSS2, Alpha strain (QK002)) |
| --- | --- | --- | --- | --- | --- | --- | --- | --- | --- | --- | --- |
| Cn1cnc(Cn2c(=O)[nH]/c(=N\c3cc4cn(C)nc4cc3Cl)n(Cc3cc(F)c(F)cc3F)c2=O)n1 | 370 nM | 400 nM | 410 nM | 500 nM | 430 nM | 270 nM | 430 nM | 290 nM | – | – | – |
| Cc1cncc(-n2c(=O)nc(Nc3cc4cn(C)nc4cc3Cl)n(Cc3cc(F)c(F)c(F)c3)c2=O)c1 | 120 nM | 160 nM | – | 220 nM | 150 nM | – | – | – | 140 nM | 130 nM | 160 nM |
